According to patent publication US20230167088A1, “1-PYRAZINYLPYRAZOLYL-3-OXYALKYL ACIDS AND THEIR DERIVATIVES, AND THEIR USE FOR CONTROL OF UNDESIRED PLANT GROWTH” (BAYER AKTIENGESELLSCHAFT, priority 2020, published 2023):

Key:
DIGSA [1] = test: Herbicidal post-emergence action 1a (greenhouse pots, visual rating); format: in vivo, Digitaria sanguinalis; conditions: rated visually about 3 weeks after treatment, 100% = plants have died, 0% = like control plants
How it was run: (§1)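 Weeds and crops sown in sandy loam in greenhouse pots were sprayed post-emergence at the one-leaf stage (2–3 weeks after sowing) with WP or EC formulations plus 0.5% additive at 600 l/ha water, 320 and/or 80 g/ha. About 3 weeks later damage was rated visually against untreated controls (0% = no effect, 100% = dead).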

STEME [2] = test: as above; format: in vivo, Stellaria media; conditions: rated visually about 3 weeks after treatment, 100% = plants have died, 0% = like control plants
How it was run: as §1

HORMU [3] = test: as above; format: in vivo, Hordeum murinum; conditions: rated visually about 3 weeks after treatment, 100% = plants have died, 0% = like control plants
Procedure: [table] a) Seeds of monocotyledonous and dicotyledonous weeds and crop plants are placed in sandy loam in plastic or organic plant pots, covered with soil and cultivated in a greenhouse under controlled growth conditions. 2 to 3 weeks after sowing, the test plants are treated at the one-leaf stage. The compounds of the invention, formulated in the form of wettable powders (WP) or as emulsion concentrates (EC), are then sprayed onto the green parts of the plants as aqueous suspension or emulsion with addition of 0.5% additive at a water application rate of 600 1/ha (converted). After the test plants have been kept in the greenhouse under optimum growth conditions for about 3 weeks, the activity of the preparations is rated visually in comparison to untreated controls. For example, 100% activity=the plants have died, 0% activity=like control plants. Tables A1 to A15 below show the effects of selected compounds of the general formula (I) according to Tables 1 and 2 on various harmful plants and an application rate corresponding to 320 g/ha and/or 80 g/ha, which were obtained by the experimental procedure mentioned above.

POAAN = test: Herbicidal post-emergence action 1b (twin sowing, 1280 g/ha); format: in vivo, Poa annua; conditions: dosage 1280 g/ha, visual rating about 3 weeks after treatment
How it was run: (§2)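 Post-emergence foliar spray on one-leaf weeds grown two species per pot in sandy loam; ~3 weeks later, visual rating from 0% (as control) to 100% (plants died).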

ABUTH [4] = test: as above; format: in vivo, Abutilon theophrasti; conditions: dosage 1280 g/ha, visual rating about 3 weeks after treatment
How it was run: as §2

STEME [5] = test: as above; format: in vivo, Stellaria media; conditions: dosage 1280 g/ha, visual rating about 3 weeks after treatment
How it was run: as §2

PHBPU = test: Herbicidal pre-emergence action 2a (greenhouse pots, visual scoring); format: in vivo, Pharbitis purpurea; conditions: dosage 320 g/ha, visual scoring after about 3 weeks vs untreated controls
How it was run: (§3)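 Visual percent rating, ~3 weeks after treatment, untreated pots as reference (0% = control-like, 100% = killed). Application: formulated compound on soil surface over seeds, 320 g/ha and/or 80 g/ha.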

STEME [6] = test: as above; format: in vivo, Stellaria media; conditions: dosage 320 g/ha, visual scoring after about 3 weeks vs untreated controls
From the text: (§4) [table] a) Seeds of monocotyledonous and dicotyledonous weed plants and crop plants are placed in plastic or organic plant pots and covered with soil. The compounds of the invention, formulated in the form of wettable powders (WP) or as emulsion concentrates (EC), are then applied onto the surface of the covering soil as aqueous suspension or emulsion with addition of 0.5% additive at a water application rate of 600 1/ha (converted). After the treatment, the pots are placed in a greenhouse and kept under good growth conditions for the trial plants. After about 3 weeks, the effect of the preparations is scored visually in comparison with untreated controls as percentages. For example, 100% activity=the plants have died, 0% activity=like control plants. Tables B1 to B15 below show the effects of selected compounds of the general formula (I) according to Tables 1 and 2 on various harmful plants and an application rate corresponding to 320 g/ha and/or 80 g/ha, which were obtained by the experimental procedure mentioned above.

HORMU [7] = test: as above; format: in vivo, Hordeum murinum; conditions: dosage 320 g/ha, visual scoring after about 3 weeks vs untreated controls
From the text: as §4

ECHCG [8] = test: Herbicidal pre-emergence action 2b (doubly sown, 1280 g/ha); format: in vivo, Echinochloa crus-galli; conditions: doubly sown pots, dosage 1280 g/ha, visual scoring after about 3 weeks
How it was run: (§5)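 Seeds are placed in sandy loam and covered, then the formulated compound is applied to the covering soil in water equivalent to 600 litres per hectare with 0.5% additive. Pots stay in the greenhouse under good growth conditions. Activity is rated visually as a percentage of untreated controls after about three weeks.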

AMARE = test: as above; format: in vivo, Amaranthus retroflexus; conditions: doubly sown pots, dosage 1280 g/ha, visual scoring after about 3 weeks
How it was run: as §5

ECHCG [9] = test: Herbicidal post-emergence action 1a (greenhouse pots, visual rating); format: in vivo, Echinochloa crus-galli; conditions: rated visually about 3 weeks after treatment, 100% = plants have died, 0% = like control plants
How it was run: as §1

MATIN [10] = test: as above; format: in vivo, Matricaria inodora; conditions: visual rating about 3 weeks after treatment
How it was run: as §1

ABUTH [11] = test: Herbicidal pre-emergence action 2a (greenhouse pots, visual scoring); format: in vivo, Abutilon theophrasti; conditions: dosage 320 g/ha, visual scoring after about 3 weeks vs untreated controls
From the text: as §4

POLCO = test: as above; format: in vivo, Polygonum convolvulus; conditions: dosage 320 g/ha, visual scoring after about 3 weeks vs untreated controls
How it was run: as §3

ECHCG [12] = test: Herbicidal post-emergence action 1b (twin sowing, 1280 g/ha); format: in vivo, Echinochloa crus-galli; conditions: dosage 1280 g/ha, visual rating about 3 weeks after treatment
How it was run: as §2

MATIN [13] = test: as above; format: in vivo, Matricaria inodora; conditions: dosage 1280 g/ha, visual rating about 3 weeks after treatment
How it was run: as §2

DIGSA [14] = test: as above; format: in vivo, Digitaria sanguinalis; conditions: dosage 1280 g/ha, visual rating about 3 weeks after treatment
How it was run: as §2

DIGSA [15] = test: Herbicidal pre-emergence action 2b (doubly sown, 1280 g/ha); format: in vivo, Digitaria sanguinalis; conditions: doubly sown pots, dosage 1280 g/ha, visual scoring after about 3 weeks
How it was run: as §5

SMILES | Post-emergence action against DIGSA in % (DIGSA [1]; Dosage 80 g/ha) [%] | Post-emergence action against DIGSA in % (DIGSA [1]; Dosage 320 g/ha) [%] | Post-emergence action against STEME in % (STEME [2]; Dosage 320 g/ha) [%] | Post-emergence action against HORMU in % (HORMU [3]; Dosage 320 g/ha) [%] | Post-emergence action at 1280 g/ha against POAAN in % (POAAN) [%] | Post-emergence action at 1280 g/ha against STEME in % (STEME [5]) [%] | Pre-emergence action against PHBPU in % (PHBPU) [%] | Pre-emergence action against STEME in % (STEME [6]) [%] | Pre-emergence action against HORMU in % (HORMU [7]) [%] | Pre-emergence action at 1280 g/ha against ECHCG in % (ECHCG [8]) [%] | Pre-emergence action at 1280 g/ha against AMARE in % (AMARE) [%] | Post-emergence action against ECHCG in % (ECHCG [9]; Dosage 80 g/ha) [%] | Post-emergence action against ECHCG in % (ECHCG [9]; Dosage 320 g/ha) [%] | Post-emergence action against MATIN in % (MATIN [10]; dosage 80 g/ha) [%] | Post-emergence action against MATIN in % (MATIN [10]; dosage 320 g/ha) [%] | Post-emergence action against HORMU in % (HORMU [3]; Dosage 80 g/ha) [%] | Pre-emergence action against ABUTH in % (ABUTH [11]) [%] | Pre-emergence action against POLCO in % (POLCO) [%] | Post-emergence action at 1280 g/ha against ECHCG in % (ECHCG [12]) [%] | Post-emergence action at 1280 g/ha against MATIN in % (MATIN [13]) [%] | other results
COC(=O)C(C)Oc1nn(-c2cnccn2)c(-c2ccnc(F)c2)c1Cl (racemic) [Example I-05] | 80 | 90 | 80 | 90 | 100 | 90 | 80 | 100 | 90 | 100 | 100 |  |  |  |  |  |  |  |  |  | Post-emergence action at 1280 g/ha against ABUTH in % (ABUTH [4]): 90%
COC(=O)C(C)Oc1nn(-c2cnccn2)c(-c2cncc(F)c2)c1Br (racemic) [Example I-08] |  | 80 | 90 | 90 |  |  | 90 | 100 | 100 |  |  | 80 | 90 | 80 | 90 | 80 | 80 | 100 |  |  | Post-emergence action against STEME in % (STEME [2]; Dosage 80 g/ha): 90%
COC(=O)C(C)Oc1nn(-c2cnccn2)c(-c2ccnc(F)c2)c1Br (racemic) [Example I-10] |  | 80 | 90 | 80 | 100 | 90 |  |  | 80 |  | 100 |  |  |  |  | 80 |  |  |  |  | 
COC(=O)C(C)Oc1nn(-c2cnccn2)c(-c2ccc(F)nc2)c1Br (racemic) [Example I-12] |  | 80 | 90 | 90 | 100 | 100 |  | 90 | 90 | 100 | 100 |  | 80 |  | 80 | 90 |  | 90 | 90 | 90 | Post-emergence action against STEME in % (STEME [2]; Dosage 80 g/ha): 80%
CCOC(=O)COc1nn(-c2cnccn2)c(-c2ccccc2)c1Br [Example I-01] |  | 80 | 90 |  |  | 100 |  | 80 |  | 100 | 100 |  | 90 | 80 | 90 |  |  | 80 |  | 90 | 
COC(=O)COc1nn(-c2cnccn2)c(-c2cncc(F)c2)c1Br [Example I-07] | 80 | 90 | 90 | 90 |  |  | 90 | 100 | 90 |  |  | 80 | 90 | 90 | 90 | 80 |  | 90 |  |  | Post-emergence action against STEME in % (STEME [2]; Dosage 80 g/ha): 90%
COC(=O)[C@@H](C)Oc1nn(-c2cnccn2)c(-c2cncc(F)c2)c1Br [Example I-39] | 80 | 90 |  |  | 100 | 100 |  |  |  | 100 | 100 | 80 | 90 | 80 | 90 |  | 90 | 90 | 100 | 90 | Post-emergence action at 1280 g/ha against DIGSA in % (DIGSA [14]): 100%; Pre-emergence action at 1280 g/ha against DIGSA in % (DIGSA [15]): 100%
COC(=O)[C@@H](C)Oc1nn(-c2cnccn2)c(-c2ccc(F)c(F)c2)c1C#N [Example I-46] |  |  |  |  | 100 | 90 |  |  |  | 100 | 100 |  |  |  | 80 |  | 80 | 100 | 100 | 90 | Post-emergence action at 1280 g/ha against DIGSA in % (DIGSA [14]): 100%; Post-emergence action at 1280 g/ha against ABUTH in % (ABUTH [4]): 90%; Pre-emergence action at 1280 g/ha against DIGSA in % (DIGSA [15]): 100%
C[C@@H](Oc1nn(-c2cnccn2)c(-c2cccc(F)c2)c1Br)C(=O)O [Example I-48] |  |  |  |  | 100 | 100 | 90 |  |  | 100 | 100 | 90 |  |  |  |  | 100 | 100 | 100 | 100 | Post-emergence action at 1280 g/ha against ABUTH in % (ABUTH [4]): 90%; Pre-emergence action at 1280 g/ha against DIGSA in % (DIGSA [15]): 100%
